Among the data in US8389549B2, “Substituted pyridines useful for treating pain” (Purdue Pharma L.P., priority 2007, dated 2013) are solubility and IC50 values, retold here.

The nature of series [1]: Solubility of diol compounds in aqueous solution. The format is physicochemical.
The target of series [2] is T1, human TRPV1 (Homo sapiens, UniProt Q8NER1). Description: Capsaicin-based assay (Fluo-4 calcium fluorescence, TRPV1/CHO cells). The format is cell-based. Also on record: expressed in transfected cells. The method, then:
One day prior to assay, TRPV1/CHO cells are seeded in 96-well clear-bottom black plates (20,000 cells/well) in growth media. On the day of the experiment, the cells are washed with 0.2 ml 1× Hank's Balanced Salt Solution (Life Technologies) containing 1.6 mM CaCl2 and 20 mM HEPES, pH 7.4 (“wash buffer”). Subsequently, the cells are loaded by incubation in 0.1 ml of wash buffer containing Fluo-4 at 3 µM final concentration. After 1 hour, the cells are washed twice with 0.2 ml wash buffer and resuspended in 0.1 ml wash buffer. The plates are then transferred to a Fluorescence Imaging Plate Reader (Molecular Devices). Fluorescence intensity is monitored for 15 seconds to establish a baseline. Subsequently, test compounds diluted in assay buffer (1× Hank's Balanced Salt Solution containing 1 mM CaCl2 and 20 mM HEPES, pH 7.4) containing 1% DMSO are added to the cell plate and fluorescence is monitored for 2 minutes. […] Human TRPV1 is then activated by the addition of 50 μL capsaicin (100 nM final concentration) and plates incubated for an additional 3 min. Data are collected over the entire time course and analyzed using Excel and the curve-fitting Formula GraphPad Prism.

Series [3] deals with T1, human TRPV1. Put plainly: pH-based assay (Fura-2 AM Ca2+ response to low pH, TRPV1/CHO cells).
Procedure: For this Protocol, a Chinese Hamster Ovary cell line (CHO) that constitutively expresses human TRPV1 is used (TRPV1/CHO cells).
TRPV1/CHO cells are seeded in the 96-well clear-bottom black-wall plate (Nunc) at densities of 1-2×10^4 cells/well and grown in 100 μL of culture medium (alpha-MEM supplemented with 10% FBS, 20 mM HEPES, 1 mg/mL geneticin and 1% antibiotic-antimycotic mixed stock solution) for 1-2 days before the experiment.
(2) The 96-well plate is incubated at 37° C. for 45 min.
(3) The loading buffer is removed from each well. […] The wells are then refilled with 80 μL of measuring buffer.
(4) After an incubation at 4° C. for 15 min, the 96-well plate is transferred to FDSS-3000 (Hamamatsu photonics, Japan).
(5) The Fura-2 fluorescent intensity is monitored at a wavelength of 340 nm and at 380 nm, respectively, at a rate of 0.5 Hz for a total of 240 seconds. After 16 time points (32 sec) of baseline detection, 20 μL of agonist solution is added to each well. […]
(6) Fluorescence intensity ratio refers to the fluorescence intensity at 340 nm over the fluorescence intensity at 380 nm at a particular time point. […]
(7) Maximal signal ratios from each well are calculated as output data using the FDSS-3000 analysis program. Data are analyzed using Excel (Microsoft) and XLfit (idbs) software. […]
(6) Fura-2 fluorescent intensity is monitored as described in 2.2.(5) of this Protocol. […]
Where [4] appears, read: pH 1.2, read-out: Solubility (μM) pH: 1.2.
Where [5] appears, read: pH 6.8, aqueous buffer, read-out: Solubility (μM) pH: 6.8.
Setting [6] is: TRPV1/CHO cells, capsaicin 100 nM final concentration, read-out: Potency, IC50(nM) Capsaicin assay.

≈ marks a conversion by molar mass, not a printed value. Like-named read-outs stand apart in the source and are kept apart here.

By solubility is commonly meant the concentration that dissolves in the medium under given conditions. For orientation: IC50 means the midpoint of a concentration-inhibition curve.

T1 sequence (Q8NER1 whole entry): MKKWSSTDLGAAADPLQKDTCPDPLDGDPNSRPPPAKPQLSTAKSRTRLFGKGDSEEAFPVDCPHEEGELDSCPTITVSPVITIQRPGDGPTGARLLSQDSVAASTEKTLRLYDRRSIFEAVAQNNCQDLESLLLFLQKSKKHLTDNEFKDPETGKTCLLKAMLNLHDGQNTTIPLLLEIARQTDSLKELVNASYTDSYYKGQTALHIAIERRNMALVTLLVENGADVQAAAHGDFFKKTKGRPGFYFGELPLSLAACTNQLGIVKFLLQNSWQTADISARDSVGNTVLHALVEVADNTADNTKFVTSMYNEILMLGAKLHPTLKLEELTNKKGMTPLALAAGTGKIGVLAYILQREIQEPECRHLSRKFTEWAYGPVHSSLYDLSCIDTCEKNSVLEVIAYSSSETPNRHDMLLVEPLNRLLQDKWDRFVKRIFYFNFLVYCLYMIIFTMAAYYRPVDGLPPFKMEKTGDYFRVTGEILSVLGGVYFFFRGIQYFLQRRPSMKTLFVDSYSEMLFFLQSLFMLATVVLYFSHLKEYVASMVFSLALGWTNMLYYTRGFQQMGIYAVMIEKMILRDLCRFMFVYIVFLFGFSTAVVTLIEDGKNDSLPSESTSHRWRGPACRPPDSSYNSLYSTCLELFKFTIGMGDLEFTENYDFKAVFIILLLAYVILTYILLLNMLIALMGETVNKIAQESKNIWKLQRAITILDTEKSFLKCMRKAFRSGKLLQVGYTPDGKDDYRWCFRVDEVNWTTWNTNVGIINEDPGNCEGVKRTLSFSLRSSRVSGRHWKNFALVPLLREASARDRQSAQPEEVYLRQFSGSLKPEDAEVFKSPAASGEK

As to `O=C(Nc1ccc(C(F)(F)F)cn1)C1=CCN(c2ncc([C@@H](O)CO)cc2F)CC1` [Compound F2], the solubility in series [1] (setting [4]) is more than 50 µM; in series [1] (setting [5]), 21 µM (≈ 8.95 µg/mL). Further, the IC50 in series [2] (setting [6]) came out at 109 ± 25.5 nM.
On the same counts, the results for `O=C(Nc1nc2ccc(F)cc2s1)C1=CCN(c2ncc([C@H](O)CO)cc2F)CC1` [Compound I5, (S)-1-(5-(1,2-dihydroxyethyl)-3-fluoropyridin-2-yl)-N-(6-fluorobenzo[d]thiazol-2-yl)-1,2,3,6-tetrahydropyridine-4-carboxamide] are 46 µM (≈ 19.9 µg/mL), 1 µM (≈ 0.432 µg/mL) and 35.6 ± 5.1 nM.
With `O=C(Nc1ccc(C(F)(F)F)cc1)C1=CCN(c2ncc([C@H](O)CO)cc2F)CC1` [Compound A14], the solubility is more than 50 µM in series [1] (setting [4]) and 19 µM (≈ 8.08 µg/mL) in series [1] (setting [5]). Also, the IC50 in series [2] worked out at 23.8 ± 6.2 nM; in series [3] it was 9.5 ± 2.5 nM.
With `O=C(Nc1ccc(C(F)(F)F)cn1)C1=CCN(c2ncc([C@H](O)CO)cc2F)CC1` [Compound E2], the solubility is more than 50 µM in series [1] (setting [4]) and 25 µM (≈ 10.7 µg/mL) in series [1] (setting [5]). Further, the IC50 in series [2] (setting [6]) is 45.9 ± 4.2 nM.
Turning to `O=C(Nc1ccc(C(F)(F)F)cc1)C1=CCN(c2ncc([C@@H](O)CO)cc2F)CC1` [Compound B14], the IC50 in series [2] was found to be 29.4 ± 6.3 nM; in series [3], 14.7 ± 1.01 nM.
